Test results published in patent publication US5391744A (priority 1993, dated 1995).
“Also recorded” adds a separate entry of the source. Like-named read-outs stand apart in the source and are kept apart here.

Columns and labels:
[1] = system: rats trained to discriminate cocaine
[2] = system: rats trained to discriminate cocaine; experiment: animal or person; details: Rattus norvegicus, ip, 0.25 h, read-out: ED50 (50% cocaine-lever responding)
[3] = system: dopamine transporter; details: in words; literature; cited from earlier work
[4] = system: nonhuman primates; details: in words; literature; cited from earlier work
[5] = target: T1, dopamine transporter (Rattus norvegicus, UniProt P23977); design: from tissue; host or cells: rat striatal membranes; details: 0.5 nM [^3 H]-1b; rat striata; F. I. Carroll et al.; cited from earlier work
[6] = target: T2, dopamine transporter (high-affinity uptake of [^3 H]dopamine into striatal nerve endings) (Rattus norvegicus, UniProt P23977); experiment: inhibition of high-affinity uptake of [^3 H]dopamine into striatal nerve endings (synaptosomes); assay type: biochemical
T2 construct: striatal nerve endings (synaptosomes); from tissue; host or cells: striatal nerve endings (synaptosomes)

[7] = target: T1, dopamine transporter; experiment: displacement of [^3 H]mazindol binding from rat striatal membranes; details: for potency / affinity increase over cocaine, mazindol binding: relative to (-)-cocaine
[8] = dose-response test, 0.625 mg/kg, 15 min, mean ± S.E.M.
[9] = dose-response test, 1.25 mg/kg, 15 min, mean ± S.E.M.
[10] = dose-response test, 2.5 mg/kg, 15 min, mean ± S.E.M.
[11] = dose-response test, 5.0 mg/kg, 15 min, mean ± S.E.M.
[12] = dose-response test, 10.0 mg/kg, 15 min, mean ± S.E.M.
[13] = temporal test, 10.0 mg/kg, 5 min, mean ± S.E.M.
[14] = temporal test, 10.0 mg/kg, 15 min, mean ± S.E.M.
[15] = temporal test, 10.0 mg/kg, 60 min, mean ± S.E.M.
[16] = temporal test, 10.0 mg/kg, 120 min, mean ± S.E.M.
[17] = mean ± SE (N), striatal synaptosomes, read-out: IC50 [^3 H] Dopamine Uptake

T2 sequence (P23977 whole entry): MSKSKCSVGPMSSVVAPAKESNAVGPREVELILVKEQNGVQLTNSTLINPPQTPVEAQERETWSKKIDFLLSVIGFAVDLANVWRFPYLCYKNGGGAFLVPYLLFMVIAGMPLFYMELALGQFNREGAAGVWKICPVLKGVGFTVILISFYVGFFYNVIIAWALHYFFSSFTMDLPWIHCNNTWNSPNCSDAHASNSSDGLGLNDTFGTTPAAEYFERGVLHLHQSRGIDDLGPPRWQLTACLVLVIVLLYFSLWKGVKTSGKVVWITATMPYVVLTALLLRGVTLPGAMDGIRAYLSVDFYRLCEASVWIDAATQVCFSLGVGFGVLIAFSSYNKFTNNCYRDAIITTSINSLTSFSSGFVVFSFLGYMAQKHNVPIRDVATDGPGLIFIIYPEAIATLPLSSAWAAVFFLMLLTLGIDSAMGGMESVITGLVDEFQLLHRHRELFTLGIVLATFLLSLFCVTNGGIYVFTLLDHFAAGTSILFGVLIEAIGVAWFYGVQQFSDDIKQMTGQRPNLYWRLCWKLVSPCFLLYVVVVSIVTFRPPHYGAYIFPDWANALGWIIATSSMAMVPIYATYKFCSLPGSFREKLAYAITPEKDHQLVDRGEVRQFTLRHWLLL
T1 sequence (P23977 whole entry): as above

SMILES: COC(=O)[C@H]1[C@@H](OC(=O)c2ccccc2)C[C@@H]2CC[C@H]1N2C [(-)-cocaine, methyl 3-(benzoyloxy) -8-methyl-8-azabicyclo [3.2.1]octane-2 carboxylate, reference compound]
- duration of complete cocaine-like response ([1]; cocaine 10 mg/kg): approximately 60 min
- injection period eliciting complete cocaine-like response ([1]; cocaine 10 mg/kg): 5 min
- response type at 120 min ([1]; cocaine, 120 min injection period, in words): elicited primarily saline-appropriate responding
- n/N (animals completing 20 responses / tested) ([1]; dose-response test, 0.625 mg/kg, 15 min): 7/7
- % Drug responses [1, 8]: 6 ± 2%
- Rate (responses/min) [1, 8]: 27.3 ± 5 responses/min
- n/N (animals completing 20 responses / tested) ([1]; dose-response test, 1.25 mg/kg, 15 min): 7/7
- % Drug responses [1, 9]: 44 ± 18%
- Rate (responses/min) [1, 9]: 21.3 ± 5 responses/min
- n/N (animals completing 20 responses / tested) ([1]; dose-response test, 2.5 mg/kg, 15 min): 7/7
- % Drug responses [1, 10]: 61 ± 16%
- Rate (responses/min) [1, 10]: 31.6 ± 16 responses/min
- n/N (animals completing 20 responses / tested) ([1]; dose-response test, 5.0 mg/kg, 15 min): 7/7
- % Drug responses [1, 11]: 98 ± 2%
- Rate (responses/min) [1, 11]: 89.0 ± 16 responses/min
- n/N (animals completing 20 responses / tested) ([1]; dose-response test, 10.0 mg/kg, 15 min): 7/7
- % Drug responses [1, 12]: 99 ± 1%
- Rate (responses/min) [1, 12]: 75.8 ± 13 responses/min
- response rates ([1]; in words, across test doses): fairly stable across all test doses
- substitution for the cocaine cue / drug-appropriate responding ([1]; in words, dose-dependence over the tested doses): increased in a dose-dependent manner
- n/N (animals completing 20 responses / tested) ([1]; temporal test, 10.0 mg/kg, 5 min): 7/7
- % Drug responses [1, 13]: 85 ± 13%
- Rate (responses/min) [1, 13]: 28.2 ± 8 responses/min
- n/N (animals completing 20 responses / tested) ([1]; temporal test, 10.0 mg/kg, 15 min): 7/7
- % Drug responses [1, 14]: 99 ± 1%
- Rate (responses/min) [1, 14]: 75.8 ± 13 responses/min
- n/N (animals completing 20 responses / tested) ([1]; temporal test, 10.0 mg/kg, 30 min): 7/7
- % Drug responses ([1]; temporal test, 10.0 mg/kg, 30 min, mean): 100%
- Rate (responses/min) ([1]; temporal test, 10.0 mg/kg, 30 min, mean ± S.E.M.): 60.6 ± 11 responses/min
- n/N (animals completing 20 responses / tested) ([1]; temporal test, 10.0 mg/kg, 60 min): 7/7
- % Drug responses [1, 15]: 81 ± 14%
- Rate (responses/min) [1, 15]: 23.0 ± 4 responses/min
- n/N (animals completing 20 responses / tested) ([1]; temporal test, 10.0 mg/kg, 120 min): 7/7
- % Drug responses [1, 16]: 31 ± 18%
- Rate (responses/min) [1, 16]: 27.7 ± 7 responses/min
- ED50 [2]: 1.7 mg/kg
- binding to / inhibition of the dopamine transporter [3]: binds to the dopamine transporter and inhibits dopamine transport

SMILES: COC(=O)[C@H]1[C@@H](c2ccccc2)C[C@@H]2CC[C@H]1N2C [Compound 1a, 3β-phenyltropane-2β-carboxylic acid methyl ester]
- binding to / inhibition of the dopamine transporter [3]: most potent compounds in binding and behavioral studies
- potency in behavioral studies [4]: most potent compounds in binding and behavioral studies

SMILES: COC(=O)[C@H]1[C@@H](c2ccc(F)cc2)C[C@@H]2CC[C@H]1N2C [Compound 1b, 3β-(p-fluorophenyl)tropane-2β-carboxylic acid methyl ether]
- binding to / inhibition of the dopamine transporter [3]: most potent compounds in binding and behavioral studies
- potency in behavioral studies [4]: most potent compounds in binding and behavioral studies

SMILES: COC(=O)[C@H]1[C@@H](c2ccc(I)cc2)C[C@@H]2CC[C@H]1N2C [Compound 1c]
- potency relative to (-)-cocaine, inhibition of [^3 H]-1b binding [5]: 78 times

SMILES: COC(=O)[C@H]1[C@@H](c2ccc(Cl)cc2)C[C@@H]2CC[C@H]1N2C [Compound 1d, 3β-(p-chlorophenyl)tropane-2β-carboxylic acid methyl ester, reference compound]
- IC50 [6]: 3.2 ± 0.1 nM
- potency relative to (-)-cocaine, inhibition of [^3 H]-1b binding [5]: 85 times
- IC50 [7]: 1.7 ± 0.1 nM

SMILES: C=C[C@H]1[C@@H](OC(=O)c2ccccc2)C[C@@H]2CC[C@H]1N2C [Compound 2a, 3β-(Benzoyloxy)-2β-vinyltropane]
- IC50 [6, 17]: 1120 ± 390 nM
- fold less potent than cocaine, dopamine uptake ([6]; relative to (-)-cocaine): two-fold less potent
- activity relative to parent structure (cocaine) ([7]; Table I data, in words): not substantially less active than the parent structure

SMILES: CN1[C@H]2CC[C@@H]1[C@@H](/C=C/Cl)[C@@H](OC(=O)c1ccccc1)C2 [Compound 2b, 3β-(Benzoyloxy)-2β-[(E)-2-chlorovinyl]tropane]
- IC50 [6, 17]: 368 ± 190 nM
- potency / affinity increase over cocaine, mazindol binding [7]: approximate twofold higher affinity; also recorded: about two-fold more potent than cocaine

SMILES: CN1[C@H]2CC[C@@H]1[C@@H](/C=C/Cl)[C@@H](c1ccc(Cl)cc1)C2 [Compound 2d, 3β-(4-Chlorophenyl)-2β-[(E)-2-chlorovinyl]tropane]
- IC50 [6]: 1.26 ± 0.3 nM
- IC50 [7]: 0.72 ± 0.06 nM
- potency of 2d relative to 2c ([7]; relative to 2c, binding affinity): doubling the potency

SMILES: CCOC(=O)/C=C/[C@H]1[C@@H](OC(=O)c2ccccc2)C[C@@H]2CC[C@H]1N2C [Compound 2e, 3β-(Benzoyloxy)-2β-[(E)-2-(ethoxycarbonyl)vinyl]tropane]
- IC50 [6, 17]: 310 ± 10 nM
- potency increase over cocaine, dopamine uptake ([6]; relative to (-)-cocaine): 4-5 times
- IC50 [7]: 50 ± 10 nM
- potency / affinity increase over cocaine, mazindol binding [7]: 4-5 fold

SMILES: CCOP(=O)(/C=C/[C@H]1[C@@H](OC(=O)c2ccccc2)C[C@@H]2CC[C@H]1N2C)OCC [Compound 2f, 3β-Benzoyloxy-2β-[(E)-2-(diethoxyphosphono)vinyl]tropane]
- IC50 [6]: 5500 ± 70 nM
- inhibition of dopamine uptake ([6]; in words): found to inhibit dopamine uptake
- fold less potent than cocaine, dopamine uptake ([6]; relative to (-)-cocaine): about 10 fold
- IC50 [7]: 4850 ± 470 nM

SMILES: OC1(c2ccc(Cl)cc2)c2ccccc2C2=NCCN21 (stereo not drawn) [mazindol]
- binding to / inhibition of the dopamine transporter [3]: potent inhibitors of binding at the transport site for dopamine
- potency in maintaining self-administration [4]: potent in maintaining self-administration

SMILES: COC(=O)C(c1ccccc1)C1CCCCN1 (stereo not drawn) [methylphendiate]
- binding to / inhibition of the dopamine transporter [3]: potent inhibitors of binding at the transport site for dopamine
- potency in maintaining self-administration [4]: potent in maintaining self-administration

SMILES: CN1Cc2c(N)cccc2C(c2ccccc2)C1 (stereo not drawn) [nomifensine]
- potency in maintaining self-administration [4]: potent in maintaining self-administration
